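Values below derive from 48-hour exposures of cells grown in 96-well plates, with endpoints linearly interpolated between the two concentrations bracketing the appropriate inhibition level. GI50: concentration for 50% inhibition of growth.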 The source made the active and inactive calls. Cut-off read from the data, not from the text of the source: active = GI50 up to about 1.1 µM and inactive = higher.
Key:
Assay in all cases: NCI anticancer screen, dose series, 48 h
786-0 = tested on: 786-0
A498 = tested on: A498
A549 = tested on: A549
ACHN = tested on: ACHN
BT-549 = tested on: BT-549
CAKI-1 = tested on: CAKI-1
CCRF-CEM = tested on: CCRF-CEM
COLO 205 = tested on: COLO 205
DU-145 = tested on: DU-145
EKVX = tested on: EKVX
HCC 2998 = tested on: HCC 2998
HCT-116 = tested on: HCT-116
HCT-15 = tested on: HCT-15
HL-60 = tested on: HL-60
HOP-62 = tested on: HOP-62
HOP-92 = tested on: HOP-92
HT-29 = tested on: HT-29
Hs-578T = tested on: Hs-578T
IGROV-1 = tested on: IGROV-1
K562 = tested on: K562
KM12 = tested on: KM12
LOX IMVI = tested on: LOX IMVI
M14 = tested on: M14
MDA-MB-231 = tested on: MDA-MB-231
MDA-MB-435 = tested on: MDA-MB-435
MDA-N = tested on: MDA-N
MOLT-4 = tested on: MOLT-4
Malme-3M = tested on: Malme-3M
NCI-H226 = tested on: NCI-H226
NCI-H23 = tested on: NCI-H23
NCI-H460 = tested on: NCI-H460
NCI-H522 = tested on: NCI-H522
NCI/ADR-RES = tested on: NCI/ADR-RES
OVCAR-3 = tested on: OVCAR-3
OVCAR-4 = tested on: OVCAR-4
OVCAR-5 = tested on: OVCAR-5
OVCAR-8 = tested on: OVCAR-8
PC-3 = tested on: PC-3
RPMI-8226 = tested on: RPMI-8226
RXF 393 = tested on: RXF 393
SF-268 = tested on: SF-268
SF-295 = tested on: SF-295
SF-539 = tested on: SF-539
SK-MEL-28 = tested on: SK-MEL-28
SK-MEL-2 = tested on: SK-MEL-2
SK-MEL-5 = tested on: SK-MEL-5
SK-OV-3 = tested on: SK-OV-3
SN12C = tested on: SN12C
SNB-19 = tested on: SNB-19
SNB-75 = tested on: SNB-75
SW-620 = tested on: SW-620
T47D = tested on: T47D
TK-10 = tested on: TK-10
U-251 = tested on: U-251
UACC-257 = tested on: UACC-257
UACC-62 = tested on: UACC-62
UO-31 = tested on: UO-31
MCF7 = tested on: MCF7
SR = tested on: SR

Measured: GI50

C/C(=N\NC(=S)N1CC2CCC(CC2)C1)c1cccc(C)n1
0.537 µM: HCT-15
inactive: A498 3.11 µM | BT-549 1.32 µM | HCC 2998 2.16 µM | HOP-92 2.2 µM | Hs-578T 4.11 µM | MDA-MB-435 1.77 µM | MDA-N 2.82 µM | Malme-3M 2.11 µM | NCI-H23 2.49 µM | OVCAR-5 1.46 µM | RXF 393 3.72 µM | SK-MEL-28 2.94 µM | SK-MEL-2 4.7 µM | SK-MEL-5 1.96 µM | SNB-19 1.75 µM | SNB-75 2.64 µM | TK-10 2.54 µM
active: 786-0 1.08 µM | A549 0.9 µM | ACHN 0.59 µM | CAKI-1 1.11 µM | CCRF-CEM 0.01 µM | COLO 205 0.01 µM | DU-145 0.617 µM | EKVX 0.488 µM | HCT-116 < 0.0445 µM | HL-60 0.01 µM | HOP-62 1.06 µM | HT-29 0.01 µM | IGROV-1 0.815 µM | K562 < 0.0112 µM | KM12 0.422 µM | LOX IMVI 0.78 µM | M14 0.269 µM | MDA-MB-231 0.224 µM | MOLT-4 0.01 µM | NCI-H226 0.841 µM | NCI-H460 0.248 µM | NCI-H522 0.00432 µM | NCI/ADR-RES 0.01 µM | OVCAR-3 0.01 µM | OVCAR-4 0.352 µM | OVCAR-8 0.294 µM | PC-3 0.01 µM | RPMI-8226 0.31 µM | SF-268 0.533 µM | SF-295 0.445 µM | SF-539 0.378 µM | SK-OV-3 0.809 µM | SN12C 0.566 µM | SW-620 0.148 µM | T47D 0.01 µM | U-251 0.551 µM | UACC-257 0.142 µM | UACC-62 0.621 µM | UO-31 0.505 µM

CC(=O)OCC1OC(n2c(-c3ccccc3)c(/N=N/c3ccc(C)cc3)c(C)c(C#N)c2=S)C(OC(C)=O)C(OC(C)=O)C1OC(C)=O (centres undefined)
inactive: 786-0 3.55 µM | A498 2.78 µM | A549 9.62 µM | ACHN > 100 µM | BT-549 6.44 µM | CAKI-1 22.9 µM | CCRF-CEM 11 µM | COLO 205 23.1 µM | DU-145 18.1 µM | HCC 2998 22.7 µM | HCT-116 3.26 µM | HL-60 2.82 µM | HOP-62 18.7 µM | HT-29 12.8 µM | K562 5.69 µM | KM12 8.28 µM | LOX IMVI 6 µM | M14 3.16 µM | MCF7 6.47 µM | MDA-MB-231 17.7 µM | MDA-MB-435 9.06 µM | MDA-N 7.36 µM | MOLT-4 3.67 µM | Malme-3M > 10 µM | NCI-H23 13.4 µM | NCI-H460 10.8 µM | NCI/ADR-RES 7.35 µM | OVCAR-3 19.7 µM | OVCAR-4 5.87 µM | OVCAR-5 23.7 µM | PC-3 > 10 µM | RPMI-8226 8 µM | RXF 393 16.2 µM | SF-268 9.04 µM | SF-295 23.6 µM | SK-MEL-28 26.4 µM | SK-MEL-2 20.7 µM | SN12C 6.35 µM | SNB-19 15.3 µM | SR 8.99 µM | SW-620 2.31 µM | T47D 59.8 µM | TK-10 23.6 µM | U-251 14.9 µM | UACC-257 32.1 µM | UO-31 > 10 µM
21.1 µM: HCT-15
active: HOP-92 0.0257 µM

Cc1nc(C)c(C(=O)NNC(=O)C[N+](C)(C)C)cc1C(=O)NNC(=O)C[N+](C)(C)C
inactive: 786-0 > 100 µM | A498 > 100 µM | A549 > 100 µM | ACHN > 100 µM | BT-549 > 100 µM | CAKI-1 > 100 µM | COLO 205 > 100 µM | DU-145 > 100 µM | EKVX > 100 µM | HCC 2998 > 100 µM | HCT-116 > 100 µM | HL-60 62.1 µM | HOP-62 > 100 µM | HOP-92 > 100 µM | HT-29 > 100 µM | IGROV-1 > 100 µM | KM12 > 100 µM | LOX IMVI > 100 µM | M14 > 100 µM | MCF7 > 100 µM | MDA-MB-231 > 100 µM | MDA-MB-435 > 100 µM | MDA-N > 100 µM | NCI-H226 > 100 µM | NCI-H23 > 100 µM | NCI-H460 > 100 µM | NCI/ADR-RES > 100 µM | OVCAR-3 > 100 µM | OVCAR-4 > 100 µM | OVCAR-5 > 100 µM | OVCAR-8 > 100 µM | RXF 393 > 100 µM | SF-268 > 100 µM | SF-295 > 100 µM | SF-539 > 100 µM | SK-MEL-28 > 100 µM | SK-MEL-2 > 100 µM | SK-MEL-5 > 100 µM | SK-OV-3 > 100 µM | SN12C > 100 µM | SNB-19 > 100 µM | SNB-75 > 100 µM | SW-620 > 100 µM | T47D 74.1 µM | TK-10 > 100 µM | U-251 > 100 µM | UACC-257 > 100 µM | UACC-62 > 100 µM | UO-31 > 100 µM
> 100 µM: HCT-15

Cc1c(F)c(N)c2c(=O)cc(-c3ccc(NC(=O)[C@@H](N)CCCCN)c(F)c3)oc2c1F
14 µM: HCT-15
inactive: 786-0 7.48 µM | ACHN 16.2 µM | BT-549 23.6 µM | CCRF-CEM 5.07 µM | DU-145 14.5 µM | EKVX 11 µM | HCT-116 5.16 µM | HOP-62 12.3 µM | HOP-92 26.7 µM | HT-29 14.3 µM | KM12 8.95 µM | LOX IMVI 16.3 µM | M14 20.7 µM | MDA-MB-231 16.3 µM | MDA-MB-435 8.65 µM | MDA-N 12.5 µM | NCI/ADR-RES 20.4 µM | OVCAR-8 13.7 µM | PC-3 16.6 µM | RXF 393 16.1 µM | SF-268 12.8 µM | SF-295 13.2 µM | SK-MEL-28 18.5 µM | SK-MEL-2 17.5 µM | SK-OV-3 15.3 µM | SN12C 14.9 µM | SNB-19 27 µM | UO-31 14.8 µM
active: A498 0.057 µM | IGROV-1 0.0532 µM | MCF7 0.0399 µM | NCI-H460 0.132 µM | T47D 0.0942 µM | TK-10 0.239 µM | UACC-257 0.209 µM

CSc1nc(NCc2ccccc2)c2cnn(COCCO)c2n1
active: SNB-75 0.152 µM
inactive: 786-0 > 100 µM | A549 43.9 µM | ACHN 31.9 µM | BT-549 35.7 µM | CAKI-1 61.9 µM | CCRF-CEM 51.6 µM | COLO 205 29.9 µM | DU-145 64.3 µM | EKVX 21.4 µM | HCT-116 62.8 µM | HL-60 42.7 µM | HOP-62 > 100 µM | HOP-92 18.2 µM | HT-29 37.8 µM | IGROV-1 40.7 µM | K562 40.1 µM | KM12 80 µM | LOX IMVI 38.6 µM | M14 67.8 µM | MCF7 45.3 µM | MDA-MB-231 55.6 µM | MDA-MB-435 27.4 µM | MDA-N 46.9 µM | MOLT-4 26.3 µM | Malme-3M 42.9 µM | NCI-H226 55.5 µM | NCI-H23 24.5 µM | NCI-H460 39.3 µM | NCI-H522 28.6 µM | NCI/ADR-RES 53 µM | OVCAR-3 57.8 µM | OVCAR-4 29.4 µM | OVCAR-5 > 100 µM | OVCAR-8 42.7 µM | PC-3 58.1 µM | RPMI-8226 38.5 µM | RXF 393 29 µM | SF-268 43.8 µM | SF-295 35.5 µM | SF-539 > 100 µM | SK-MEL-2 43.7 µM | SK-MEL-5 41.5 µM | SK-OV-3 > 100 µM | SN12C 75 µM | SR 69.7 µM | SW-620 > 100 µM | T47D 53.7 µM | TK-10 61.9 µM | U-251 44.5 µM | UACC-257 20.3 µM | UACC-62 43.9 µM | UO-31 35.9 µM
